Source: paper PMC10178848, “Modulating fast skeletal muscle contraction protects skeletal muscle in animal models of Duchenne muscular dystrophy” (The Journal of Clinical Investigation, 2023)

Tested on: GRMD plasma proteins
Assay type: in vivo, dog
Conditions: EDG-5506 treatment to GRMD baseline

O=c1ccc(-c2cnc(OCC(F)(F)F)nc2)nn1Cc1cncc(F)c1 [EDG-5506]
Proteasome activator complex subunit 3 (PSME3): Change from GRMD Baseline (fraction) (Decreased in GRMD): 0.0977 fraction
Protein S100-A4 (S100A4): Change from GRMD Baseline (fraction) (Decreased in GRMD): 0.1824 fraction
Protein amnionless (AMN): Change from GRMD Baseline (fraction) (Decreased in GRMD): 0.1425 fraction
Protein jagged-1 (JAG1): Change from GRMD Baseline (fraction) (Decreased in GRMD): 0.2072 fraction
Retinol-binding protein 4 (RBP4): Change from GRMD Baseline (fraction) (Decreased in GRMD): 0.0942 fraction
Roundabout homolog 2 (ROBO2): Change from GRMD Baseline (fraction) (Decreased in GRMD): 0.1874 fraction
SLIT and NTRK-like protein 5 (SLITRK5): Change from GRMD Baseline (fraction) (Decreased in GRMD): 0.1091 fraction
SPARC (SPARC): Change from GRMD Baseline (fraction) (Decreased in GRMD): 0.0605 fraction
Sclerostin (SOST): Change from GRMD Baseline (fraction) (Decreased in GRMD): 0.197 fraction
Semaphorin-3E (SEMA3E): Change from GRMD Baseline (fraction) (Decreased in GRMD): -0.0152 fraction
Semaphorin-5A (SEMA5A): Change from GRMD Baseline (fraction) (Decreased in GRMD): 0.0882 fraction
Serum albumin (ALB): Change from GRMD Baseline (fraction) (Decreased in GRMD): 0.068 fraction
Sialic acid-binding Ig-like lectin 6 (SIGLEC6): Change from GRMD Baseline (fraction) (Decreased in GRMD): 0.1345 fraction
Stem cell growth factor-alpha (CLEC11A): Change from GRMD Baseline (fraction) (Decreased in GRMD): -0.071 fraction
T-lymphocyte surface antigen Ly-9 (LY9): Change from GRMD Baseline (fraction) (Decreased in GRMD): 0.0785 fraction
TGF-beta receptor type-2 (TGFBR2): Change from GRMD Baseline (fraction) (Decreased in GRMD): -0.0644 fraction
Tropomyosin alpha-1 chain (TPM1): Change from GRMD Baseline (fraction) (Decreased in GRMD): 0.0152 fraction
Tumor necrosis factor receptor superfamily member 10B (TNFRSF10B): Change from GRMD Baseline (fraction) (Decreased in GRMD): 0.131 fraction
Tumor necrosis factor-inducible gene 6 protein (TNFAIP6): Change from GRMD Baseline (fraction) (Decreased in GRMD): 0.2046 fraction
Wnt inhibitory factor 1 (WIF1): Change from GRMD Baseline (fraction) (Decreased in GRMD): 0.0365 fraction
Activated Protein C (PROC): Change from GRMD Baseline (fraction) (Increased in GRMD): -0.0147 fraction
Adiponectin (ADIPOQ): Change from GRMD Baseline (fraction) (Increased in GRMD): -0.1461 fraction
Alanine aminotransferase 1 (GPT): Change from GRMD Baseline (fraction) (Increased in GRMD): -0.0729 fraction
Alpha-2-antiplasmin (SERPINF2): Change from GRMD Baseline (fraction) (Increased in GRMD): -0.0328 fraction
Apolipoprotein D (APOD): Change from GRMD Baseline (fraction) (Increased in GRMD): -0.0675 fraction
Apolipoprotein L1 (APOL1): Change from GRMD Baseline (fraction) (Increased in GRMD): -0.1374 fraction
Asialoglycoprotein receptor 1 (ASGR1): Change from GRMD Baseline (fraction) (Increased in GRMD): -0.009 fraction
Bone morphogenetic protein 1 (BMP1): Change from GRMD Baseline (fraction) (Increased in GRMD): 0.0186 fraction
Breast cancer anti-estrogen resistance protein 3 (BCAR3): Change from GRMD Baseline (fraction) (Increased in GRMD): -0.0831 fraction
C5a anaphylatoxin (C5): Change from GRMD Baseline (fraction) (Increased in GRMD): 0.2048 fraction
C-C motif chemokine 1 (CCL1): Change from GRMD Baseline (fraction) (Increased in GRMD): -0.0825 fraction
C-C motif chemokine 3 (CCL3): Change from GRMD Baseline (fraction) (Increased in GRMD): -0.078 fraction
C-X-C motif chemokine 5 (CXCL5): Change from GRMD Baseline (fraction) (Increased in GRMD): -0.0608 fraction
CD63 antigen (CD63): Change from GRMD Baseline (fraction) (Increased in GRMD): -0.0803 fraction
CD97 antigen (CD97): Change from GRMD Baseline (fraction) (Increased in GRMD): -0.1124 fraction
CD109 antigen (CD109): Change from GRMD Baseline (fraction) (Increased in GRMD): -0.0257 fraction
CD177 antigen (CD177): Change from GRMD Baseline (fraction) (Increased in GRMD): -0.1306 fraction
Carbonic anhydrase 4 (CA4): Change from GRMD Baseline (fraction) (Increased in GRMD): -0.0922 fraction
Caspase-3 (CASP3): Change from GRMD Baseline (fraction) (Increased in GRMD): -0.0323 fraction
Cell adhesion molecule 3 (CADM3): Change from GRMD Baseline (fraction) (Increased in GRMD): -0.0647 fraction
Change from GRMD Baseline (fraction): 1-phosphatidylinositol 4,5-bisphosphate phosphodiesterase gamma-1 (PLCG1) (Increased in GRMD): -0.0855 fraction
Change from GRMD Baseline (fraction): 14-3-3 protein family (YWHAB,YWHAE,YWHAG,YWHAH,YWHAQ,YWHAZ,SFN) (Increased in GRMD): -0.1463 fraction
Change from GRMD Baseline (fraction): 26S proteasome non-ATPase regulatory subunit 7 (PSMD7) (Increased in GRMD): 0.0373 fraction
Change from GRMD Baseline (fraction): 40S ribosomal protein S7 (RPS7) (Increased in GRMD): -0.3231 fraction
Change from GRMD Baseline (fraction): A disintegrin and metalloproteinase with thrombospondin motifs 5 (ADAMTS5) (Increased in GRMD): 0.004 fraction
Change from GRMD Baseline (fraction): A disintegrin and metalloproteinase with thrombospondin motifs 15 (ADAMTS15) (Increased in GRMD): -0.0189 fraction
Change from GRMD Baseline (fraction): AH receptor-interacting protein (AIP) (Increased in GRMD): -0.1069 fraction
Change from GRMD Baseline (fraction): AMP Kinase (alpha2beta2gamma1) (PRKAA2 PRKAB2 PRKAG1) (Increased in GRMD): -0.3422 fraction
Change from GRMD Baseline (fraction): ATP synthase subunit beta, mitochondrial (ATP5B) (Increased in GRMD): 0.3871 fraction
Change from GRMD Baseline (fraction): ATP-dependent RNA helicase DDX19B (DDX19B) (Increased in GRMD): -0.2236 fraction
Change from GRMD Baseline (fraction): Acidic leucine-rich nuclear phosphoprotein 32 family member B (ANP32B) (Increased in GRMD): -0.3439 fraction
Change from GRMD Baseline (fraction): Activin receptor type-1B (ACVR1B) (Increased in GRMD): -0.0675 fraction
Change from GRMD Baseline (fraction): Adenylate kinase isoenzyme 1 (AK1) (Increased in GRMD): -0.5663 fraction
Change from GRMD Baseline (fraction): Adenylosuccinate lyase (ADSL) (Increased in GRMD): 0.1427 fraction
Change from GRMD Baseline (fraction): Afamin (AFM) (Increased in GRMD): -0.1952 fraction
Change from GRMD Baseline (fraction): Aflatoxin B1 aldehyde reductase member 2 (AKR7A2) (Increased in GRMD): -0.1733 fraction
Change from GRMD Baseline (fraction): Alcohol dehydrogenase [NADP(+)] (AKR1A1) (Increased in GRMD): -0.2833 fraction
Change from GRMD Baseline (fraction): Aminoacylase-1 (ACY1) (Increased in GRMD): -0.4238 fraction
Change from GRMD Baseline (fraction): Amphoterin-induced protein 2 (AMIGO2) (Increased in GRMD): 0.0688 fraction
Change from GRMD Baseline (fraction): Annexin A6 (ANXA6) (Increased in GRMD): -0.2759 fraction
Change from GRMD Baseline (fraction): Anterior gradient protein 2 homolog (AGR2) (Increased in GRMD): -0.0848 fraction
Change from GRMD Baseline (fraction): Apolipoprotein E (APOE) (Increased in GRMD): -0.1554 fraction
Change from GRMD Baseline (fraction): Apolipoprotein E (isoform E3) (APOE) (Increased in GRMD): 0.0588 fraction
Change from GRMD Baseline (fraction): Apolipoprotein E (isoform E4) (APOE) (Increased in GRMD): -0.0389 fraction
Change from GRMD Baseline (fraction): Apoptosis regulator Bcl-2 (BCL2) (Increased in GRMD): -0.1414 fraction
Change from GRMD Baseline (fraction): Artemin (ARTN) (Increased in GRMD): -0.0443 fraction
Change from GRMD Baseline (fraction): Arylsulfatase B (ARSB) (Increased in GRMD): -0.0585 fraction
Change from GRMD Baseline (fraction): B-cell receptor CD22 (CD22) (Increased in GRMD): -0.1198 fraction
Change from GRMD Baseline (fraction): Baculoviral IAP repeat-containing protein 5 (BIRC5) (Increased in GRMD): -0.1027 fraction
Change from GRMD Baseline (fraction): Basal Cell Adhesion Molecule (BCAM) (Increased in GRMD): -0.0829 fraction
Change from GRMD Baseline (fraction): Bcl-2-like protein 1 (BCL2L1) (Increased in GRMD): -0.0786 fraction
Change from GRMD Baseline (fraction): Bone sialoprotein 2 (IBSP) (Increased in GRMD): -0.0968 fraction
Change from GRMD Baseline (fraction): C-C motif chemokine 13 (CCL13) (Increased in GRMD): -0.0908 fraction
Change from GRMD Baseline (fraction): C-C motif chemokine 23 (CCL23) (Increased in GRMD): -0.0571 fraction
Change from GRMD Baseline (fraction): CCAAT/enhancer-binding protein beta (CEBPB) (Increased in GRMD): -0.0589 fraction
Change from GRMD Baseline (fraction): CD59 glycoprotein (CD59) (Increased in GRMD): -0.0497 fraction
Change from GRMD Baseline (fraction): Calcineurin (PPP3CA PPP3R1) (Increased in GRMD): -0.2961 fraction
Change from GRMD Baseline (fraction): Calcineurin subunit B type 1 (PPP3R1) (Increased in GRMD): -0.1572 fraction
Change from GRMD Baseline (fraction): Calcium/calmodulin-dependent protein kinase type 1 (CAMK1) (Increased in GRMD): -0.1284 fraction
Change from GRMD Baseline (fraction): Calcium/calmodulin-dependent protein kinase type 1D (CAMK1D) (Increased in GRMD): -0.0749 fraction
Change from GRMD Baseline (fraction): Calcium/calmodulin-dependent protein kinase type II subunit alpha (CAMK2A) (Increased in GRMD): -0.4545 fraction
Change from GRMD Baseline (fraction): Calcium/calmodulin-dependent protein kinase type II subunit beta (CAMK2B) (Increased in GRMD): -0.4519 fraction
Change from GRMD Baseline (fraction): Calcium/calmodulin-dependent protein kinase type II subunit delta (CAMK2D) (Increased in GRMD): -0.3407 fraction
Change from GRMD Baseline (fraction): Calpain I (CAPN1 CAPNS1) (Increased in GRMD): -0.011 fraction
Change from GRMD Baseline (fraction): Calpastatin (CAST) (Increased in GRMD): -0.036 fraction
Change from GRMD Baseline (fraction): Carbonic anhydrase 3 (CA3) (Increased in GRMD): -0.4126 fraction
Change from GRMD Baseline (fraction): Cardiotrophin-1 (CTF1) (Increased in GRMD): -0.0756 fraction
Change from GRMD Baseline (fraction): Catalase (CAT) (Increased in GRMD): -0.1548 fraction
Change from GRMD Baseline (fraction): Choline/ethanolamine kinase (CHKB) (Increased in GRMD): -0.0698 fraction
Change from GRMD Baseline (fraction): Chymase (CMA1) (Increased in GRMD): -0.0479 fraction
Change from GRMD Baseline (fraction): Clusterin (CLU) (Increased in GRMD): -0.1079 fraction
Change from GRMD Baseline (fraction): Complement component C6 (C6) (Increased in GRMD): 0.1732 fraction
Change from GRMD Baseline (fraction): Complement component C8 (C8A C8B C8G) (Increased in GRMD): -0.1065 fraction
Change from GRMD Baseline (fraction): Complement factor D (CFD) (Increased in GRMD): -0.1183 fraction
Change from GRMD Baseline (fraction): Creatine kinase M-type (CKM) (Increased in GRMD): -0.3439 fraction
Change from GRMD Baseline (fraction): Creatine kinase M-type:Creatine kinase B-type heterodimer (CKB CKM) (Increased in GRMD): -0.3657 fraction
Change from GRMD Baseline (fraction): Cyclin-dependent kinase inhibitor 1B (CDKN1B) (Increased in GRMD): -0.1686 fraction
Change from GRMD Baseline (fraction): Cysteine and glycine-rich protein 3 (CSRP3) (Increased in GRMD): -0.0108 fraction
Change from GRMD Baseline (fraction): Cytochrome c (CYCS) (Increased in GRMD): -0.561 fraction
Change from GRMD Baseline (fraction): DNA repair protein RAD51 homolog 1 (RAD51) (Increased in GRMD): -0.1205 fraction
Change from GRMD Baseline (fraction): Desmoglein-1 (DSG1) (Increased in GRMD): -0.0821 fraction
Change from GRMD Baseline (fraction): Dickkopf-like protein 1 (DKKL1) (Increased in GRMD): -0.0601 fraction
Change from GRMD Baseline (fraction): Down syndrome cell adhesion molecule (DSCAM) (Increased in GRMD): -0.0864 fraction
Change from GRMD Baseline (fraction): Dual specificity mitogen-activated protein kinase kinase 1 (MAP2K1) (Increased in GRMD): -0.3654 fraction
Change from GRMD Baseline (fraction): Dual specificity protein phosphatase 3 (DUSP3) (Increased in GRMD): -0.3709 fraction
Change from GRMD Baseline (fraction): Dynein light chain roadblock-type 1 (DYNLRB1) (Increased in GRMD): -0.5348 fraction
Change from GRMD Baseline (fraction): Ectonucleoside triphosphate diphosphohydrolase 1 (ENTPD1) (Increased in GRMD): -0.1101 fraction
Change from GRMD Baseline (fraction): Endothelin-converting enzyme 1 (ECE1) (Increased in GRMD): -0.1039 fraction
Change from GRMD Baseline (fraction): Ephrin type-A receptor 1 (EPHA1) (Increased in GRMD): -0.0912 fraction
Change from GRMD Baseline (fraction): Ephrin type-B receptor 6 (EPHB6) (Increased in GRMD): 0.1966 fraction
Change from GRMD Baseline (fraction): Epidermal growth factor (EGF) (Increased in GRMD): -0.0588 fraction
Change from GRMD Baseline (fraction): Epidermal growth factor receptor variant III (EGFR) (Increased in GRMD): -0.052 fraction
Change from GRMD Baseline (fraction): Erythropoietin receptor (EPOR) (Increased in GRMD): -0.0772 fraction
Change from GRMD Baseline (fraction): Estrogen receptor (ESR1) (Increased in GRMD): -0.0792 fraction
Change from GRMD Baseline (fraction): Eukaryotic translation initiation factor 4H (EIF4H) (Increased in GRMD): -0.4334 fraction
Change from GRMD Baseline (fraction): Eukaryotic translation initiation factor 4 gamma 2 (EIF4G2) (Increased in GRMD): -0.3268 fraction
Change from GRMD Baseline (fraction): Extracellular matrix protein 1 (ECM1) (Increased in GRMD): -0.1471 fraction
Change from GRMD Baseline (fraction): Fibroblast growth factor 8 isoform B (FGF8) (Increased in GRMD): -0.0878 fraction
Change from GRMD Baseline (fraction): Fibroblast growth factor 9 (FGF9) (Increased in GRMD): -0.0286 fraction
